Measurements published in patent US20110160594A1 (priority 2008, published 2011).

test system: Pyricularia oryzae; assay type: cell-based; conditions: liquid culture, incubation with compound 24-48 h

Compound | branch of the dendrogram of IR spectra (FIG. 8)
Fc1ccc([C@]2(Cn3cncn3)O[C@H]2c2ccccc2Cl)cc1 (racemic) [epoxiconazole] | third branch of the dendrogram
propioconazole | third branch of the dendrogram
CNC(=O)/C(=N/OC)c1ccccc1CO/N=C(C)/C(=N/OC)C(/C)=N/OC [orysastrobin] | clustered together in the second branch
CCCCC(C#N)(Cn1cncn1)c1ccc(Cl)cc1 (stereo not drawn) [myclobutanil] | third branch of the dendrogram
CO/C=C(/C(=O)OC)c1ccccc1Oc1cc(Oc2ccccc2C#N)ncn1 [azoxystrobin] | clustered together in the second branch
COC(=O)N(OC)c1ccccc1COc1ccn(-c2ccc(Cl)cc2)n1 [pyraclostrobin] | clustered together in the second branch
